# According to article PMC11590367, “Characterization of novel small molecule inhibitors of estrogen receptor-activation function 2 (ER-AF2)” (Breast Cancer Research : BCR, 2024):
# Experiments:
# [1] = target: T1, recombinant ER-LBD (residues 298–554) (Homo sapiens, UniProt P03372); test: Microscale thermophoresis (MST) direct binding; details: averaged from three independent assays, 20 µM E2 in buffer, read-out: Kd (binding affinity to ER-LBD)
# T1 construct: The ER-LBD (residues 298–554) was cloned into pET28a bacterial expression plasmid; His-tag (N); made in house; host or cells: E. coli BL21-DE3 (with pRARE)
# Method: The ER-LBD (residues 298–554) was cloned into pET28a bacterial expression plasmid with an N-terminal His-tag. pET28a-His-ER and pRARE were transformed into E. coli (BL21-DE3). Bacteria were grown at 37 [drawing 1] C overnight, and then diluted 1:20 the following day in LB media and grown at 37 [drawing 2] C until the OD600 reached 0.5. Protein expression was induced with 1 mM IPTG, and 50 µM E2 was added to the media. Cells were then grown for 5 h at 25 °C. Bacterial pellets were collected by centrifugation at 13,000 rpm for 7 min. Pellets were resuspended in lysis buffer (25 mM Tris, pH 8.4, 150 mM NaCl, 20 µM E2, 1 mM DTT, 0.1 mM PMSF, cOmplete protease inhibitor (Roche)) then sonicated and centrifuged to obtain the soluble extracts. ER-LBD was purified using affinity chromatography with Ni-NTA agarose resin. The presence of the ER-LBD in eluted fractions was confirmed by SDS-PAGE and validated by mass spectrometry. The eluted protein was further purified by size exclusion chromatography (s75), and fractions containing the ER-LBD protein were pooled and concentrated using Amicon Ultra centrifugal filters (3 K MWCO).
# MST was used to validate the direct binding and measure the binding affinities between the lead compounds and the recombinant ER-LBD. […]
# [2] = Precipitation in MST assay buffer; format: physicochemical; details: 2% DMSO, 0.03 to 1000 µM
# Method: MST was used to validate the direct binding and measure the binding affinities between the lead compounds and the recombinant ER-LBD. ER-LBD was labeled with red fluorescent dye using a Protein Labeling Kit RED-NHS 2nd Generation (Nanotemper MO-L011) according to the manufacturer’s protocol. The compounds were serially diluted 1:2 in 100% DMSO from 50 to 0.0015 mM, then added to 10 nM of labeled ER protein in the assay buffer (25 mM Tris, pH 8.4, 150 mM NaCl, 20 µM E2, 0.1 mM PMSF, 0.05% Tween20) at final concentrations of 0.03 to 1000 µM. Recombinant proteins in cell free assays are not affected by DMSO concentrations up to 10%. A final concentration of 2% DMSO was chosen for MST as the compounds required this concentration to be soluble in the assay buffer. […] The corresponding data points were removed from the analysis. […] Each protein/compound mixture was then loaded into Monolith Premium Capillaries (Nanotemper MO-K025). All assays were conducted with medium MST power and 20% excitation power. Data analysis and Kd estimation were performed with the MO Affinity Analysis software from Nanotemper.
# ER D538G/F404L mutant = ER D538G/F404L mutant (Homo sapiens, UniProt P03372, D538G/F404L); test: Transcriptional activity of fulvestrant resistant mutant ER; format: cell-based; details: compared to DMSO
# [3] = target: T2, ER-SRC3 interaction in TamR3 cells (Homo sapiens, UniProt P03372); test: Proximity ligation assay (PLA), TamR3; format: cell-based
# T2 construct: endogenous in cells; host or cells: MCF7 or TamR3 cells
# Method: MCF7 or TamR3 cells were starved for 72 h and then seeded onto PEI coated coverslips in a 6-well plate at 1 × 10^5 cells/well. For the E2 experiments, the cells were treated the following day with 10 µM of ER-AF2 inhibitor for 24 h, with E2 added 1 h before fixation. […] 24 h post-treatment, cells were fixed in methanol:acetone (3:1). Coverslips were then permeabilized with 0.05% Triton X-100 for 5 minutes at room temperature. The Duolink In Situ Detection Reagents Red kit from Millipore Sigma (DUO92008) was used for blocking and PLA according to the manufacturer’s protocol.
# [4] = target: T3, ER (ERE-luc) in PC3 cells (Homo sapiens, UniProt P03372); test: Nuclear receptor luciferase transcriptional assay, ER; format: cell-based; details: 1 or 5 µM, 1 nM E2, PC3 cells
# T3 construct: expressed in transfected cells; host or cells: PC3 cells
# Method: PC3 cells (androgen receptor (AR)-, glucocorticoid receptor (GR)[…], progesterone receptor (PR)-, ER-) were starved for 72 h then seeded into a 96-well plate at a density of 5,000 cells/well. 24 h later, cells were transfected with either ER, AR, GR, or PR and a luciferase plasmid (ERE-luc for ER and ARR3tk-luc for AR, GR, and PR). 24 h post-transfection, cells were simultaneously stimulated with 1 nM E2 for ER, 0.1 nM R1881 for AR, 1 nM Dexamethasone for GR, or 1 nM Levonorgestrel for PR, and treated with 1 or 5 µM of VPC-260724 24 h post-treatment, cells were lysed with 50 µl of passive lysis buffer (Promega #E1910). 20 µl of lysate was transferred to a white flat-bottom 96-well plate (Corning Life Sciences Cat#3912). Luminescence readings were obtained using the TECAN M200 Pro plate reader following the addition of 50 µl of luciferase reagent (Promega Luciferase Assay System E1500).
# TamR3 cells = test: PrestoBlue viability assay, TamR3; format: cell-based; details: 1 nM E2, 72 h treatment, ± SD of 3 biological replicates
# Method: T47D, MCF7, TamR3, and MDA-MB-231 cells were starved for 72 h and then seeded into black clear-bottom 96-well plates (Corning Life Sciences Cat#3904) at 20,000 cells/well (T47D, MCF7, TamR3) or 5,000 cells/well (MDA-MB-231). […] 20 µl of PrestoBlue Cell Viability Reagent (Thermo Fisher A13262) was added to each well and incubated at 37 °C for 1 h. Fluorescence intensity was measured using the TECAN F500 plate reader with emission and excitation wavelengths of […], respectively.
# [5] = test system: ER target genes (cyclinD1, CDC2, E2F, PR, pS2) in TamR3 cells; test: Real-time PCR of ER target genes, TamR3; format: cell-based; details: 72 h
# Method: Total RNA was extracted using TRIzol, 72 h post-treatment. cDNA synthesis was conducted using the Maxima First Strand cDNA Synthesis Kit for RT-qPCR (Thermo K1641) according to the manufacturer’s protocol. RT-PCR was conducted on the QuantStudio 7 Pro instrument and expression fold change was calculated using 2−ΔΔCt method normalized to 18s.
# TamR3 spheroids = test: Viability assay in 3D spheroids, TamR3; format: cell-based; details: 1:2 dilution from 50 µM, 1 nM E2; read-out: IC50 on growth (area) of TamR3 spheroids
# T2 sequence (P03372 whole entry): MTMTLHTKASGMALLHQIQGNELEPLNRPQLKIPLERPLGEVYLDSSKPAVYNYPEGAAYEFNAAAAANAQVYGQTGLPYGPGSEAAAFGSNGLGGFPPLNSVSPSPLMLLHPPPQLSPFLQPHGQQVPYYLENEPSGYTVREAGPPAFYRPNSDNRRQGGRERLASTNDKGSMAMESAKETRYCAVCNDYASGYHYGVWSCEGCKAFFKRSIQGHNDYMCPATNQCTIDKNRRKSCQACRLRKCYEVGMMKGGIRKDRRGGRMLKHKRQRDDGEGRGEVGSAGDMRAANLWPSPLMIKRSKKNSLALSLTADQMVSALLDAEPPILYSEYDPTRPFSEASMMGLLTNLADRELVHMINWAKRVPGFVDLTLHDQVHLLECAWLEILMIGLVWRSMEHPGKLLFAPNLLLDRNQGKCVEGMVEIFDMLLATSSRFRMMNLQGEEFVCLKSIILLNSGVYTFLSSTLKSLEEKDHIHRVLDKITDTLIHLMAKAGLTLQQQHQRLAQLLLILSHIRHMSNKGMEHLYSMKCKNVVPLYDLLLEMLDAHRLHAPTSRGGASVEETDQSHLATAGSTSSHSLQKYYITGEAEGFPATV
# T1 sequence (P03372 298-554): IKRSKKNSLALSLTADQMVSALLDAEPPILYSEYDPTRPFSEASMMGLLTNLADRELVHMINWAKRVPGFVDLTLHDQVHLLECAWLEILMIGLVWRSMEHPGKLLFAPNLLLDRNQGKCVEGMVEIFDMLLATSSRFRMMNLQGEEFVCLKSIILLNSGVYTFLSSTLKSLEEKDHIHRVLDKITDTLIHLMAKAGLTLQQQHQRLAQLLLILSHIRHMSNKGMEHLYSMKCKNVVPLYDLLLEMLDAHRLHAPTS
# T3 sequence (P03372 whole entry): as the sequence (P03372 whole entry) above
# Chain of ER D538G/F404L mutant (P03372 whole entry F404L/D538G): as the sequence (P03372 whole entry) above, with F404L, D538G counted along it
compound,measurement,setting,value
Cc1cccn2c(CNCc3cccc(N(C)C)n3)cnc12 [VPC-260724],Kd,[1],85.2 ± 32.7 µM
same,Precipitation after addition of ER protein,[2],did not exhibit precipitation at any concentration
same,Transcriptional activity of mutant ER D538G/F404L,ER D538G/F404L mutant,significantly reduced the transcriptional activity
same,ER-SRC3 interaction in TamR3 in presence of tamoxifen,[3]; 10 µM with 1 µM Tamoxifen,reduced this interaction
same,"ER-SRC3 interactions (PLA signals per nuclei), TamR3","[3]; 10 µM, 48 h, E2 stimulation",significantly reduced ER-SRC3 interactions
same,Transcriptional activity of ER,[4],dose-dependent inhibition
same,IC50,TamR3 cells,28.9 ± 4.55 µM
same,"ER target gene expression in TamR3, combined with tamoxifen",[5]; 10 µM with 1 µM Tamoxifen,markedly reduced
same,"mRNA levels of ER target genes, TamR3","[5]; 10 µM, E2 stimulation",significant decrease
same,IC50,TamR3 spheroids,27 ± 3.2 µM
